Data: patent EP1561465A2, “Methods of use of fluoroquinolone compounds against bacteria” (LG Life Sciences, Ltd., priority 1999, dated 2001)
Converted amounts (≈) assume the structure as drawn. Where two headings read alike, the source gives them in different places.

Columns and labels:
Salmonella spp. = test: MIC by agar dilution (NCCLS M7-A4), 288 enteropathogenic isolates, gemifloxacin and 15 other antimicrobials; assay type: cell-based; conditions: for MIC: Salmonella
Hafnia alvei = test: as above; assay type: cell-based; conditions: for MIC: Hafnia alvei
Yersinia enterocolitica = test: as above; assay type: cell-based
Shigella spp. = test: as above; assay type: cell-based; conditions: Shigella spp. N= 21
Procedure, shortened: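 Agar dilution with ~10^4 cfu/spot inoculum; plates incubated aerobically at 35 °C for 24 h, except C. jejuni, held microaerophilically for 48 h. MIC taken as lowest antibiotic concentration with no visible growth.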

Aeromonas spp. = test: as above; assay type: cell-based; conditions: for MIC: Aeromonas
Campylobacter jejuni [1] = conditions: Campylobacter jejuni N= 91
Campylobacter jejuni [2] = test: MIC by agar dilution (NCCLS M7-A4), 288 enteropathogenic isolates, gemifloxacin and 15 other antimicrobials; conditions: for MIC: Campylobacter jejuni
Streptococcus pneumoniae [3] = test: MIC by NCCLS reference broth microdilution, 450 respiratory tract pathogens; assay type: cell-based; conditions: Streptococcus pneumoniae
Streptococcus pyogenes = test: as above; assay type: cell-based; conditions: Streptococcus pyogenes
Haemophilus influenzae [4] = test: as above; assay type: cell-based; conditions: for MIC / MIC50: Haemophilus influenzae
Moraxella catarrhalis [5] = test: as above; assay type: cell-based
Staphylococcus aureus = test: as above; assay type: cell-based
Klebsiella pneumoniae [6] = test: as above; assay type: cell-based
Haemophilus influenzae [7] = test: MIC by two-fold serial agar dilution, Sensitivity Disk agar-N (Kitasato isolates); assay type: cell-based; conditions: Haemophilus influenzae (24)
Moraxella catarrhalis [8] = test: as above; assay type: cell-based; conditions: Moraxella catarrhalis (22)
Streptococcus pneumoniae [9] = test: as above; assay type: cell-based; conditions: Streptococcus pneumoniae; for MIC: 18 h, read-out: MIC Range
E. coli = test: microbe, parasite or virus in culture; assay type: cell-based; conditions: Escherichia coli
P. aeruginosa = test: MIC by two-fold serial agar dilution, quinolone-resistant strains; assay type: cell-based; conditions: Pseudomonas aeruginosa
Pseudomonas aeruginosa = test: MIC by agar dilution (NCCLS), 322 nosocomial Gram negative isolates, Athens 1998; assay type: cell-based; conditions: n = 57 isolates
Escherichia coli = test: as above; assay type: cell-based; conditions: n = 57 isolates
Klebsiella pneumoniae [10] = test: as above; assay type: cell-based; conditions: n = 56 isolates
Proteus mirabilis = test: as above; assay type: cell-based; conditions: Proteus mirabilis; n = 57 isolates
Enterobacter spp. = test: as above; assay type: cell-based; conditions: Enterobacter; n = 57 isolates; read-out: MIC50
Acinetobacter spp. = test: as above; assay type: cell-based; conditions: Acinetobacter; n = 38 strains
[11] = Streptococcus pyogenes (n = 100)
[12] = erythromycin resistant I phenotype [MLSB] (n = 20)
[13] = erythromycin resistant M phenotype (n = 20)
[14] = Haemophilus influenzae (n = 100)
[15] = Klebsiella pneumoniae, Klebsiella pneumoniae (n = 50)

Q: Which results are given for `CO/N=C1\CN(c2nc3c(cc2F)c(=O)c(C(=O)O)cn3C2CC2)CC1CN` (racemic) [Gemifloxacin (SB 265805)]?
A: % Susceptible (Salmonella spp.; Salmonella spp. N= 106): 100%; MIC (mg/L) Range (Salmonella spp.; Salmonella spp. N= 106): ≤0.015 to 0.25 mg/L; MIC (Salmonella spp.; read-out: MIC (mg/L) 50%, Salmonella spp. N= 106): 0.03 mg/L (≈ 0.077 µM); MIC (Salmonella spp.; read-out: MIC (mg/L) 90%, Salmonella spp. N= 106): 0.12 mg/L (≈ 0.308 µM); % Susceptible (Hafnia alvei; Hafnia alvei N= 32): 100%; MIC (Hafnia alvei; read-out: MIC (mg/L) 50%): 0.03 mg/L (≈ 0.077 µM); MIC (Hafnia alvei; read-out: MIC (mg/L) 90%): 0.03 mg/L (≈ 0.077 µM); % Susceptible (Yersinia enterocolitica; Yersinia enterocolitica N= 22): 100%; MIC (mg/L) Range (Yersinia enterocolitica; Yersinia enterocolitica N= 22): ≤0.015 to 0.12 mg/L; MIC (Yersinia enterocolitica; Yersinia enterocolitica, read-out: MIC (mg/L) 50%): 0.03 mg/L (≈ 0.077 µM); MIC (Yersinia enterocolitica; Yersinia enterocolitica, read-out: MIC (mg/L) 90%): 0.03 mg/L (≈ 0.077 µM); % Susceptible (Shigella spp.): 100%; MIC (mg/L) Range (Shigella spp.): ≤0.015 mg/L; MIC (Shigella spp.; read-out: MIC (mg/L) 50%): ≤ 0.015 mg/L; MIC (Shigella spp.; read-out: MIC (mg/L) 90%): ≤ 0.015 mg/L; % Susceptible (Aeromonas spp.; Aeromonas spp. N= 16): 100%; MIC (Aeromonas spp.; read-out: MIC (mg/L) 50%): ≤ 0.015 mg/L; MIC (Aeromonas spp.; read-out: MIC (mg/L) 90%): 0.03 mg/L (≈ 0.077 µM); % Susceptible (Campylobacter jejuni [1]): 32%; MIC (mg/L) Range (Campylobacter jejuni [1]): 0.03 to 128 mg/L; MIC (Campylobacter jejuni [2]; read-out: MIC (mg/L) 50%): 32 mg/L (≈ 82.2 µM); MIC (Campylobacter jejuni [2]; read-out: MIC (mg/L) 90%): 128 mg/L (≈ 329 µM)

Q: What does the source list for `O=C(O)c1cn(C2CC2)c2cc(N3CCNCC3)c(F)cc2c1=O` [Ciprofloxacin, ciprofloxacin]?
A: MIC (Streptococcus pneumoniae [3]; Streptococcus pneumoniae (n = 100)): 0.06 to 4 µg/mL (≈ 0.181 to 12.1 µM); MIC (Streptococcus pneumoniae [3]; multi-drug resistant (n = 16)): 0.5 to 4 µg/mL (≈ 1.51 to 12.1 µM); MIC (Streptococcus pneumoniae [3]; penicillin intermediate (n = 16)): 0.5 to 2 µg/mL (≈ 1.51 to 6.04 µM); MIC (Streptococcus pneumoniae [3]; penicillin resistant (n = 18)): 0.5 to 8 µg/mL (≈ 1.51 to 24.1 µM); MIC50 (Streptococcus pneumoniae [3]; penicillin resistant (n = 18)): 0.5 µg/mL (≈ 1.51 µM); MIC90 (Streptococcus pneumoniae [3]; penicillin resistant (n = 18)): 8 µg/mL (≈ 24.1 µM); MIC (Streptococcus pneumoniae [3]; penicillin susceptible (n = 20)): 0.06 to 2 µg/mL (≈ 0.181 to 6.04 µM); MIC (Streptococcus pyogenes; [11]): 0.12 to 2 µg/mL (≈ 0.362 to 6.04 µM); MIC90 (Streptococcus pyogenes; [11]): 0.5 µg/mL (≈ 1.51 µM); MIC (Streptococcus pyogenes; erythromycin resistant C phenotype [MLSB] (n = 20)): 0.25 to 0.5 µg/mL (≈ 0.754 to 1.51 µM); MIC (Streptococcus pyogenes; [12]): 0.12 to 2 µg/mL (≈ 0.362 to 6.04 µM); MIC90 (Streptococcus pyogenes; [12]): 0.5 µg/mL (≈ 1.51 µM); MIC (Streptococcus pyogenes; [13]): 0.12 to 0.5 µg/mL (≈ 0.362 to 1.51 µM); MIC90 (Streptococcus pyogenes; [13]): 0.5 µg/mL (≈ 1.51 µM); MIC (Streptococcus pyogenes; fully susceptible (n = 20)): 0.12 to 2 µg/mL (≈ 0.362 to 6.04 µM); MIC90 (Streptococcus pyogenes; fully susceptible (n = 20)): 0.5 µg/mL (≈ 1.51 µM); MIC (Streptococcus pyogenes; multi-drug resistant (n = 20)): 0.25 to 1 µg/mL (≈ 0.754 to 3.02 µM); MIC90 (Streptococcus pyogenes; multi-drug resistant (n = 20)): 0.5 µg/mL (≈ 1.51 µM); MIC90 (Haemophilus influenzae [4]; [14]): 0.015 µg/mL (≈ 0.0453 µM); MIC (Haemophilus influenzae [4]; [14]): 0.0075 to 0.5 µg/mL (≈ 0.0226 to 1.51 µM); MIC50 (Haemophilus influenzae [4]; [14]): ≤ 0.75 ng/mL; MIC (Haemophilus influenzae [4]; β-lactamase negative (n = 80)): 0.0075 to 0.5 µg/mL (≈ 0.0226 to 1.51 µM); MIC50 (Haemophilus influenzae [4]; β-lactamase negative (n = 80)): ≤ 7.5 ng/mL; MIC (Haemophilus influenzae [4]; β-lactamase positive (n = 20)): 0.0075 to 0.015 µg/mL (≈ 0.0226 to 0.0453 µM); MIC50 (Haemophilus influenzae [4]; β-lactamase positive (n = 20)): ≤ 7.5 ng/mL; MIC (Moraxella catarrhalis [5]; Moraxella catarrhalis (n = 50)): 0.00375 to 0.06 µg/mL (≈ 0.0113 to 0.181 µM); MIC50 (Moraxella catarrhalis [5]; Moraxella catarrhalis (n = 50)): 0.03 µg/mL (≈ 0.0905 µM); MIC (Moraxella catarrhalis [5]; β-lactamase negative (n = 13)): 0.00375 to 0.03 µg/mL (≈ 0.0113 to 0.0905 µM); MIC50 (Moraxella catarrhalis [5]; β-lactamase negative (n = 13)): 0.015 µg/mL (≈ 0.0453 µM); MIC (Moraxella catarrhalis [5]; β-lactamase positive (n = 37)): 0.00375 to 0.06 µg/mL (≈ 0.0113 to 0.181 µM); MIC50 (Moraxella catarrhalis [5]; β-lactamase positive (n = 37)): 0.03 µg/mL (≈ 0.0905 µM); MIC (Staphylococcus aureus; Staphylococcus aureus (n = 50)): 0.06 to 4 µg/mL (≈ 0.181 to 12.1 µM); MIC50 (Staphylococcus aureus; Staphylococcus aureus (n = 50)): 2 µg/mL (≈ 6.04 µM); MIC (Staphylococcus aureus; β-lactamase negative (n = 20)): 0.06 to 4 µg/mL (≈ 0.181 to 12.1 µM); MIC50 (Staphylococcus aureus; β-lactamase negative (n = 20)): 2 µg/mL (≈ 6.04 µM); MIC Range (Klebsiella pneumoniae [6]; Klebsiella pneumoniae (n = 50)): ≤7.5 to 1000 ng/mL; MIC50 (Klebsiella pneumoniae [6]; [15]): 0.12 µg/mL (≈ 0.362 µM); MIC90 (Klebsiella pneumoniae [6]; [15]): 0.5 µg/mL (≈ 1.51 µM); MIC90 (Klebsiella pneumoniae [6]; Klebsiella pneumoniae, extended spectrum β-lactamase negative (n = 30)): 0.03 µg/mL (≈ 0.0905 µM); MIC90 (Klebsiella pneumoniae [6]; Klebsiella pneumoniae, extended spectrum β-lactamase positive (n = 20)): 0.5 µg/mL (≈ 1.51 µM); MIC Range (Klebsiella pneumoniae [6]; extended spectrum β-lactamase negative (n = 30)): ≤7.5 to 120 ng/mL; MIC Range (Klebsiella pneumoniae [6]; extended spectrum β-lactamase positive (n = 20)): 15 to 500 ng/mL; MIC Range (Haemophilus influenzae [7]): 8 to 31 ng/mL; MIC50 (Moraxella catarrhalis [8]): 0.031 µg/mL (≈ 0.0936 µM); MIC Range (Moraxella catarrhalis [8]): 0.031 to 0.063 µg/mL; MIC (Streptococcus pneumoniae [9]; Ciprofloxacin-resistant (21)): 8 to 128 µg/mL (≈ 24.1 to 386 µM); MIC (Streptococcus pneumoniae [9]; Ciprofloxacin-susceptible (94)): 0.25 to 4 µg/mL (≈ 0.754 to 12.1 µM); MIC (Streptococcus pneumoniae [9]; Erythromycin-resistant (37)): 0.5 to 64 µg/mL (≈ 1.51 to 193 µM); MIC (Streptococcus pneumoniae [9]; Minocycline-resistant (37)): 0.25 to 64 µg/mL (≈ 0.754 to 193 µM); MIC (Streptococcus pneumoniae [9]; Penicillin-resistant (19)): 0.5 to 8 µg/mL (≈ 1.51 to 24.1 µM); MIC50 (Streptococcus pneumoniae [9]; Penicillin-resistant (19), read-out: MIC50): 0.5 µg/mL (≈ 1.51 µM); MIC (E. coli; E. coli KU1030, mutant type SP): 0.063 µg/mL (≈ 0.19 µM); MIC (E. coli; E. coli KU1036, mutant type GB (DNA gyrase B)): 0.063 µg/mL (≈ 0.19 µM); MIC (E. coli; E. coli KU1038, mutant type SP): 0.063 µg/mL (≈ 0.19 µM); MIC (E. coli; E. coli KU1042, mutant type SP): 0.063 µg/mL (≈ 0.19 µM); MIC (P. aeruginosa): 1 µg/mL (≈ 3.02 µM); MIC50 (Pseudomonas aeruginosa): 0.5 µg/mL (≈ 1.51 µM); MIC50 (Escherichia coli; Escherichia coli): ≤ 0.03 µg/mL; MIC Range (Escherichia coli): ≤0.03 to 64 µg/mL; MIC50 (Klebsiella pneumoniae [10]; Klebsiella pneumoniae): ≤ 0.03 µg/mL; MIC90 (Klebsiella pneumoniae [10]; Klebsiella pneumoniae): 0.5 µg/mL (≈ 1.51 µM); MIC Range (Klebsiella pneumoniae [10]): ≤0.03 to 8 µg/mL; MIC50 (Proteus mirabilis): 0.06 µg/mL (≈ 0.181 µM); MIC50 (Enterobacter spp.): ≤ 0.03 µg/mL; MIC90 (Acinetobacter spp.): > 64 µg/mL; MIC (mg/L) Range (Salmonella spp.; Salmonella spp. N= 106): ≤0.015 to 1 mg/L; MIC (Yersinia enterocolitica; 24 h, Yersinia enterocolitica N= 22, read-out: MIC (mg/L) Range): 0.015 to 0.25 mg/L (≈ 0.0453 to 0.754 µM); MIC (mg/L) Range (Aeromonas spp.; Aeromonas spp. N= 16): ≤0.015 to 0.06 mg/L; MIC (mg/L) Range (Campylobacter jejuni [2]; Campylobacter jejuni N= 91): 0.06 to 128 mg/L
